Measured values as given in ChEMBL document CHEMBL4411318, “Discovery of a Series of 2'-α-Fluoro,2'-β-bromo-ribonucleosides and Their Phosphoramidate Prodrugs as Potent Pan-Genotypic Inhibitors of Hepatitis C Virus” (J Med Chem, 2019).

How the values were obtained:
[1] = Cytotoxicity in human HepaRG cells assessed as reduction in cell viability incubated for 14 days by CellTiter-Glo assay; assay type: cell-based
[2] = system: cytochrome c oxidase subunit 2 DNA level; assay: Mitochondrial toxicity in human HepG2 cells assessed as inhibition of cytochrome c oxidase subunit 2 DNA level followed by medium plus drugs replenishment every 3 to 4 days for 14 days relative to control; assay type: cell-based
[3] = system: cytochrome c oxidase subunit 2 DNA level; assay: Mitochondrial toxicity in human HepG2 cells assessed as inhibition of cytochrome c oxidase subunit 2 DNA level at 12.5 uM followed by medium plus drugs replenishment every 3 to 4 days for 14 days relative to control; assay type: cell-based
[4] = system: nuclear ribosomal-DNA level; assay: Mitochondrial toxicity in human HepG2 cells assessed as inhibition of nuclear ribosomal-DNA level at 50 uM followed by medium plus drugs replenishment every 3 to 4 days for 14 days relative to control; assay type: cell-based
[5] = Drug metabolism in human primary hepatocytes assessed as Tmax for NTP formation at 10 uM after 2 to 48 hrs by LC-MS/MS analysis; assay type: ADME, cell-based, Hepatocyte
[6] = system: nuclear ribosomal-DNA level; assay: in vitro; conditions: human, HepG2 cells
[7] = system: nuclear ribosomal-DNA level; assay: Mitochondrial toxicity in human HepG2 cells assessed as inhibition of nuclear ribosomal-DNA level at 12.5 uM followed by medium plus drugs replenishment every 3 to 4 days for 14 days relative to control; assay type: cell-based
[8] = target: RNA-directed RNA polymerase (Hepacivirus hominis) (UniProt O39930); conditions: genotype 1b/3a
Description: Inhibition of NS5B polymerase in HCV genotype 1b/3a chimeric replicon infected in human HuH7 replicon cells after 5 days by RT-PCR analysis

HepG2 [9] = assay: Mitochondrial toxicity in human HepG2 cells assessed as lactic acid production at 12.5 uM followed by medium plus drugs replenishment every 3 to 4 days for 14 days relative to control; assay type: cell-based; conditions: hepg2, 336 h
[10] = Cytotoxicity against human CCRF-CEM assessed reduction in cell viability after 4 days by MTT assay; assay type: cell-based; conditions: CCRF-CEM cells
[11] = Cytotoxicity against human PBMC assessed reduction in cell viability after 5 days by MTT assay; assay type: cell-based; conditions: PBMC
[12] = Cytotoxicity against human HuH7 cells assessed reduction in cell viability after 3 to 5 days by MTT assay; assay type: cell-based, Huh-7
[13] = target: RNA-directed RNA polymerase (Hepacivirus hominis) (UniProt O39930); assay: Inhibition of NS5B polymerase in HCV genotype 2a infected in human HuH7 replicon cells after 5 days by RT-PCR analysis; assay type: cell-based; conditions: Hepatitis C virus subtype 2a
[14] = Nephrotoxicity in human HK2 cells after 72 hrs by Hoechst 33342/HCS live/dead green dye-based assay; assay type: toxicity, cell-based, HK-2
HepG2 [15] = assay: Mitochondrial toxicity in human HepG2 cells assessed as lactic acid production at 50 uM followed by medium plus drugs replenishment every 3 to 4 days for 14 days relative to control; assay type: cell-based; conditions: hepg2, 336 h
[16] = Cardiotoxicity against human embryonic stem cell-induced ventricular cardiomyocytes administered on day 7 and measured on day 10 after 30 mins incubation by CellTiter Glo assay; assay type: toxicity, cell-based, Cardiac muscle cell
[17] = system: cytochrome c oxidase subunit 2 DNA level; assay: Mitochondrial toxicity in human HepG2 cells assessed as inhibition of cytochrome c oxidase subunit 2 DNA level at 50 uM followed by medium plus drugs replenishment every 3 to 4 days for 14 days relative to control; assay type: cell-based
[18] = target: RNA-directed RNA polymerase (Hepacivirus hominis) (UniProt O39930); assay: Inhibition of NS5B polymerase in HCV genotype 1b/4a chimeric replicon infected in human HuH7 replicon cells after 5 days by RT-PCR analysis; assay type: cell-based
[19] = target: RNA-directed RNA polymerase (Hepacivirus hominis) (UniProt O39930); conditions: Hepatitis C virus subtype 1b
Description: Inhibition of NS5B polymerase in wild type HCV genotype 1b infected in human Huh7 replicon cells after 5 days by RT-PCR assay

RNA-directed RNA polymerase (Hepacivirus hominis), sequence (O39930 1-591): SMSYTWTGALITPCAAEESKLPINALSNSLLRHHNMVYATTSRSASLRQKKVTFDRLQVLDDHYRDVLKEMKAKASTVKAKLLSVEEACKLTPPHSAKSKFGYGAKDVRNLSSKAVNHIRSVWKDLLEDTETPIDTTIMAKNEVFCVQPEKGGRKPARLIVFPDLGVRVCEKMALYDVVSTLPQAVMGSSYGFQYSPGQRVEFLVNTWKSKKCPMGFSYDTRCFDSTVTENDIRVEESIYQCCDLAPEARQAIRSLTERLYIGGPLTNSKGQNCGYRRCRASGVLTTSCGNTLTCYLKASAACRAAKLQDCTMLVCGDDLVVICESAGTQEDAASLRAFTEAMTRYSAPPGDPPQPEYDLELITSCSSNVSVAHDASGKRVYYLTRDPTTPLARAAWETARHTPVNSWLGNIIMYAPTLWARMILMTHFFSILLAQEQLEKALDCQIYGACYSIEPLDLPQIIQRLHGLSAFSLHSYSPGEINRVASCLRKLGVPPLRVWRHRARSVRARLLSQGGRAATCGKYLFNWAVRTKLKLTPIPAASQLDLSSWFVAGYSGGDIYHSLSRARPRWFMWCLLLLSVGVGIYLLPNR

SMILES: CC(C)OC(=O)[C@H](C)N[P@](=O)(OC[C@H]1O[C@@H](n2ccc(=O)[nH]c2=O)[C@](C)(F)[C@@H]1O)Oc1ccccc1 [SOFOSBUVIR]
- CC50 at 336 h [1]: 44 µM
- IC50 at 14 days [2]: > 50 µM
- inhibition at 336 h, 12.5 µM [3]: 6.7%
- inhibition at 336 h, 50 µM [4]: 58%
- Tmax [5]: 12 h
- IC50 at 14 days [6]: 45 µM
- inhibition at 336 h, 12.5 µM [7]: 3.1%
- EC90 [8]: 0.37 µM
- Activity (HepG2 [9]): 79%
- CC50 at 96 h [10]: > 100 µM
- CC50 at 120 h [11]: > 100 µM
- CC50 [12]: > 100 µM
- EC90 [13]: 0.13 µM
- CC50 at 72 h [14]: > 300 µM
- Activity (HepG2 [15]): 180%
- CC50 at 0.5 h [16]: > 100 µM
- inhibition at 336 h, 50 µM [17]: 44%
- EC90 [18]: 0.15 µM
- EC90 [19]: 0.15 to 0.9 µM
